Laboratory results from article PMC3673936, “Molecular Characterization and Functions of Fatty Acid and Retinoid Binding Protein Gene (Ab-far-1) in Aphelenchoides besseyi” (PLoS ONE, 2013).

Target: T1, rAb-FAR-1 (Aphelenchoides besseyi, UniProt R9QS34)
T1 construct: E. coli BL21(DE3), pET-32a (BamHI/XhoI), N-terminal His-tag fusion, Ni-purified; ORF 181 aa with predicted signal peptide; called full-length, primer FARf-BamHI lacks ATG at its start
Experiment: fluorescence titration
Format: binding

T1 sequence (R9QS34 entry or part of it): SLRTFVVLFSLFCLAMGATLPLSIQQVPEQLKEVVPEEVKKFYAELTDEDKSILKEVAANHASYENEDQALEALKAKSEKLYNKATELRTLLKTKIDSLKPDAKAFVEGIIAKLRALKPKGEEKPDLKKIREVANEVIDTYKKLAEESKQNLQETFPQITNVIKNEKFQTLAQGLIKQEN

In order of falling Kd:
1. CC\C=C/C=C/C=C/C=C\CCCCCCCC(=O)O [cis-parinaric acid]  6.69 µM
2. CC1=C(/C=C/C(C)=C/C=C/C(C)=C/CO)C(C)(C)CCC1 [retinol]  3.41 µM
3. CN(C)c1cccc2c(S(=O)(=O)NCCCCCCCCCCC(=O)O)cccc12 [DAUDA, 11-((5-dimethylaminonaphthalene-1-sulfonyl)amino) undecannoic acid]  3.4 µM
